According to article PMC8232621, “Antimicrobial Activity of a Library of Thioxanthones and Their Potential as Efflux Pump Inhibitors” (Pharmaceuticals, 2021):
Read-outs that look alike come from different tables or passages of the source.

Key:
E. faecalis ATCC 29212 = assay: Antibacterial activity, broth microdilution MIC; type: cell-based; details: Enterococcus faecalis
From the text: (§1) The referred library of thioxanthones was initially tested for their antimicrobial activity against six bacterial strains: the Gram-negative Escherichia coli ATCC 25922, Pseudomonas aeruginosa ATCC 27853 and Salmonella enterica serovar Typhimurium SL1344 (SE03), with the acrA gene deleted, and the Gram-positive Staphylococcus aureus ATCC 29213, Enterococcus faecalis ATCC 29212 and the methicillin and ofloxacin-resistant clinical isolate S. aureus 272123. For the synergy assay, two clinically relevant isolates were used: the extended-spectrum β-lactamase (ESBL)-producing E. coli SA/2 [23] and the vancomycin-resistant E. faecalis (VRE) B3/101 [23]. The antibiotics used were cefotaxime (CTX) and vancomycin (VAN), respectively.
(§2) The minimum inhibitory concentration (MIC) for each compound was determined by broth microdilution method in a 96-well plate according to the Clinical and Laboratory Standard Institute (CLSI) guidelines. The medium used was MHB II. The concentrations tested ranged from 100 µM to 0.195 µM and were prepared from a stock solution of 10 mM in DMSO, for S. aureus 272123 and SE03; for the other strains, the concentrations tested ranged from 64 µg/mL to 4 µg/mL and were prepared from a stock solution of 10 mg/mL in DMSO. DMSO was used in subinhibitory concentrations (1% v/v). The MIC was determined by visual inspection.

S. aureus 272123 [1] = assay: Antibacterial activity, broth microdilution MIC; type: cell-based; details: Staphylococcus aureus, 272123, read-out: Minimum Inhibitory Concentration (MIC)
From the text: as §1, §2

S. aureus ATCC 29213 = assay: Antibacterial activity, broth microdilution MIC; type: cell-based; details: Staphylococcus aureus
From the text: as §1, §2

SE03 = assay: Antibacterial activity, broth microdilution MIC; type: cell-based, Salmonella enterica serovar Typhimurium SL1344; details: Salmonella enterica, read-out: Minimum Inhibitory Concentration (MIC)
From the text: as §1, §2

S. aureus 272123 [2] = assay: Real-time ethidium bromide accumulation assay (efflux pump inhibition); type: cell-based, Staphylococcus aureus; set-up: key: RFI = (RFtreated − RFuntreated)/RFuntreated at minute 60; details: compounds 50 µM, reserpine 25 µM, minute 60, EB 1 µg/mL
Experimental: The relative fluorescence index (RFI) was calculated based on the means of relative fluorescence units, and theses RFIs are depicted in Table 4.
The compounds were evaluated for their ability to inhibit the efflux of EB, an efflux pump substrate, in Salmonella enterica serovar Typhimurium SE03 and S. aureus 272123 strains, through real-time fluorimetry, monitoring the intracellular accumulation of EB, an efflux pump substrate. This was determined by the automated method using a CLARIOstar Plus plate reader (BMG Labtech, Ortenberg, Germany). Reserpine and CCCP were applied at 25 µM as positive controls, and the solvent DMSO was applied at 1% v/v. The bacterial strains were incubated in an appropriate culture media (TSB–S. aureus 272123; LB-B–SE03) at 37 °C until they reached an optical density (OD) of 0.6 at 600 nm. The culture was centrifuged at 13,000× g for 3 min, and the pellet was washed and resuspended with phosphate buffered saline (PBS, pH 7.4). The suspension was centrifuged again in the same conditions and resuspended in PBS.
Then, 50 µL of this solution were transferred into a 96-well black microtiter plate (Greiner Bio-One Hungary Kft, Mosonmagyaróvár, Fertősor, Hungary), and 50 µL of bacterial suspension (OD600 = 0.6) were added to each well. The plates were placed into the CLARIOstar plate reader, and the fluorescence was monitored at excitation and emission wavelengths of 530 nm and 600 nm, respectively, every minute for one hour on a real-time basis. From the real-time data, the activity of the compounds, namely the relative fluorescence index (RFI) of the last time point (minute 60) of the EB accumulation assay, was calculated according to the following equation:(1) RFI=RFtreated−RFuntreated/RFuntreated where RFtreated is the relative fluorescence (RF) at the last time point of EB accumulation curve in the presence of the compound, and RFuntreated is the RF at the last time point of the EB accumulation curve of the untreated control, having only the solvent (DMSO) control. The accumulation curves were designed using Microsoft Excel®. The samples were tested in triplicate, and the RFI presented comes from the average of these three values. The accumulation graphs present the mean of the RF at the last time point. The standard deviation (SD) was calculated automatically and included in the RF graphs.

wt85 = assay: Quorum sensing inhibition assay (pigment production); type: cell-based, Chromobacterium violaceum wild-type 85; details: Chromobacterium violaceum, read-out: Quorum Sensing Inhibition (mm) ± SD
Experimental: (§3) Concerning the QS inhibition assay, the sensor strain Chromobacterium violaceum CV026 and the AHL producer strain Sphingomonas paucimobilis Ezf 10-17 (EZF) were inoculated as parallel lines, and the AHL producers Chromobacterium violaceum wild-type 85 (wt85) and Serratia marcescens AS-1 were inoculated as a single line. The interaction between the strains and compounds 2–18 was evaluated as the reduction of pigment production, in millimeters (mm) (Table 5) with promethazine (PMZ) as a positive control.
(§4) The QS inhibitory effect of the compounds was examined on the EZF and the sensor CV026 strains, on the wt85 strain, and on S. marcescens. The method used was the parallel inoculation method, where pair combinations of the used sensor strain CV026 and the N-acyl-homoserine lactone (AHL) producing strain EZF were inoculated directly onto the LB*-A agar surface in parallel, at an approximate distance of 5 mm from each other. S. marcescens AS-1 and wt85 were inoculated as a single line. Filter paper disks (7 mm in diameter) were placed on the center of the inoculated line(s) and impregnated with 8 µL of a solution of 10 mM of the compounds. […] The agar plates were incubated at room temperature (20 °C) for 24−48 h. The QS inhibition was accessed visually, through the inhibition of pigment production. The discolored, but intact, bacterial colonies were measured with a ruler.

EZF + CV026 = assay: Quorum sensing inhibition assay (pigment production), parallel inoculation; type: cell-based; details: disk with 8 µL of 10 mM solution, read-out: Quorum Sensing Inhibition (mm) ± SD
Experimental: as §3, §4

E. coli ATCC 25922 = assay: Antibacterial activity, broth microdilution MIC; type: cell-based; details: Escherichia coli, ATCC25922, read-out: Minimum Inhibitory Concentration (MIC)
From the text: as §1, §2

P. aeruginosa ATCC 27853 = assay: Antibacterial activity, broth microdilution MIC; type: cell-based; details: Pseudomonas aeruginosa, ATCC27853, read-out: Minimum Inhibitory Concentration (MIC)
From the text: as §1, §2

[3] = ATCC29212, E. faecalis ATCC 29212, read-out: Minimum Inhibitory Concentration (MIC)
[4] = ATCC29213, S. aureus ATCC 29213, read-out: Minimum Inhibitory Concentration (MIC)

Structure (SMILES)	MIC (E. faecalis ATCC 29212; ATCC29212, read-out: Minimum Inhibitory Concentration (MIC)) [µM]	MIC (E. faecalis ATCC 29212; [3])	MIC (S. aureus 272123 [1]) [µM]	MIC (S. aureus ATCC 29213; ATCC29213, read-out: Minimum Inhibitory Concentration (MIC)) [µM]	MIC (S. aureus ATCC 29213; [4])	MIC (SE03) [µM]	RFI ± SD (S. aureus 272123 [2])	zone of inhibition at 10000 µM (wt85) [mm]	zone of inhibition at 10000 µM (EZF + CV026) [mm]	MIC (E. coli ATCC 25922) [µM]	MIC (P. aeruginosa ATCC 27853) [µM]
CCCOc1ccc(NCCN(CC)CC)c2c(=O)c3ccccc3sc12 [Compound 2]	83	32 µg/mL	> 100	83	32 µg/mL	> 100	0.75 ± 0.08	0	0		
CCCOc1ccc(N2CCCCC2)c2c(=O)c3ccccc3sc12 [Compound 3]		> 100 µM	> 100		> 100 µM	> 100	1.50 ± 0.04	0	31 ± 0.8		
CCCOc1ccc(Nc2nc(C)cc(C)n2)c2c(=O)c3ccccc3sc12 [Compound 8, 1-[(4,6-Dimethylpyrimidin-2-yl)amino]-4-propoxy-9H-thioxanthen-9-one]		> 100 µM	> 100		> 100 µM	> 100	0.24 ± 0.07	0	32 ± 0.1	> 100	> 100
CCCOc1ccc(N2CCNC(=O)C2)c2c(=O)c3ccccc3sc12 [Compound 9, 4-(9-Oxo-4-propoxy-9H-thioxanthen-1-yl)piperazin-2-one]		> 100 µM	> 100		> 100 µM	> 100	0.14 ± 0.02	0	0	> 100	> 100
CCCOc1ccc(NCCO)c2c(=O)c3ccccc3sc12 [Compound 10, 1-[(2-Hydroxyethyl)amino]-4-propoxy-9H-thioxanthen-9-one]		> 100 µM	> 100		> 100 µM	> 100	4.71 ± 0.78	0	0	> 100	> 100
CCCOc1ccc(NCCN2CCOCC2)c2c(=O)c3ccccc3sc12 [Compound 11, 1-[(2-Morpholinoethyl)amino]-4-propoxy-9H-thioxanthen-9-one]		> 100 µM	> 100		> 100 µM	> 100	0.89 ± 0.06	0	0	> 100	> 100
